Values of other authors in patent US10073089B2 (priority 2011, dated 2018).

Tested on: torpedo electrocyte membranes
Conditions: read-out: Sensitivity (concentration in nM)

Row | Substance | IC50 [nM]
1 | 13-desmethyl spirolide C [13-SPX C] | 108
2 | gymnodimine A [GYM A] | 391
